Measurements taken from patent publication US20200361895A1, “NOVEL SULFONAMIDE CARBOXAMIDE COMPOUNDS” (Inflazome Limited, priority 2017, published 2020).
Counter-ions that a name gives are not always drawn. Like-named read-outs stand apart in the source and are kept apart here.

Key:
[1] = PK protocol, intravenous administration; format: in vivo, male Sprague Dawley rats; settings: male, Sprague Dawley, plasma, rat; for Vd: read-out: Vdss
Description: Pharmacokinetic parameters were determined in male Sprague Dawley rats (Charles River, UK, 250-350 g; or Vital River Laboratory Animal Technology Co Ltd, Beijing, China, 7-9 weeks old). Animals were individually housed during the study and maintained under a 12 h light/dark cycle. Animals had free access to food and water.
For intravenous administration, compounds were formulated as a solution in water or DMSO:PBS [10:90] in 2 mL/kg dosing volume and administered via tail vein. For oral administration, compounds were formulated as a solution in DMSO:water [10:90] in 5 mL/kg dosing volume and administered orally.
Serial blood samples (about 120-300 μL) were taken from each animal at each of 8 time-points post dose (0.083, 0.25, 0.5, 1, 2, 4, 8 and 24 h) or at each of 12 time-points post dose (0.03, 0.1, 0.17, 0.25, 0.5, 1, 2, 4, 6, 8, 12 and 24 h) or pre-dose and at each of 9 time-points post dose (0.25, 0.5, 1, 2, 4, 6, 8, 12 and 24 h). Samples were held on ice for no longer than 30 minutes before centrifugation (10,000 rpm (8,385 g) for 3 minutes; or 5,696 rpm (3,000 g) for 15 minutes) for plasma generation. Plasma was frozen on dry ice prior to bioanalysis. PK parameters were generated from LC-MS/MS data using Dotmatics or Phoenix WinNonlin 6.3 software.

NLRP3 [2] = molecular target: T1, NLRP3 (Homo sapiens, UniProt Q96P20); assay: THP-1 cells pyroptosis assay (LPS + nigericin, resazurin readout; THP IC50); format: cell-based; set-up: Seed THP-1 cells (25,000 cells/well) containing 1.0 μg/ml LPS in 40 μl of RPMI medium; host or cells: THP-1 cells
How it was run: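 Human THP-1 cells, 25,000/well in serum-free RPMI with 1 μg/ml LPS, treated 3 hrs at 37° C with compound (8-point half-log, 10 μM top, 0.1% DMSO), then 5 μM nigericin 1 hr. Viability by 100 μM resazurin fluorescence after 1-2 hrs; IC50 by 4-parameter fit.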

NLRP3 [3] = molecular target: T1, NLRP3; assay: Human whole blood IL1β release assay (LPS + nigericin, AlphaLisa IL-1β; HWB IC50); format: cell-based; set-up: Human whole blood in Li-heparin tubes was obtained from healthy donors from a volunteer donor panel; from tissue; host or cells: human whole blood from healthy donors; settings: IL-1β release
How it was run: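 Donor Li-heparin whole blood primed with 1 μg/ml LPS, given compound (8-point half-log series, 10 μM top; DMSO 0.1% final) for 3 h at 37 °C, then nigericin 10 μM final for 1 h. Supernatant IL-1β measured by AlphaLisa; IC50 from 4-parameter variable-slope fit.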

T1 sequence (Q96P20 whole entry): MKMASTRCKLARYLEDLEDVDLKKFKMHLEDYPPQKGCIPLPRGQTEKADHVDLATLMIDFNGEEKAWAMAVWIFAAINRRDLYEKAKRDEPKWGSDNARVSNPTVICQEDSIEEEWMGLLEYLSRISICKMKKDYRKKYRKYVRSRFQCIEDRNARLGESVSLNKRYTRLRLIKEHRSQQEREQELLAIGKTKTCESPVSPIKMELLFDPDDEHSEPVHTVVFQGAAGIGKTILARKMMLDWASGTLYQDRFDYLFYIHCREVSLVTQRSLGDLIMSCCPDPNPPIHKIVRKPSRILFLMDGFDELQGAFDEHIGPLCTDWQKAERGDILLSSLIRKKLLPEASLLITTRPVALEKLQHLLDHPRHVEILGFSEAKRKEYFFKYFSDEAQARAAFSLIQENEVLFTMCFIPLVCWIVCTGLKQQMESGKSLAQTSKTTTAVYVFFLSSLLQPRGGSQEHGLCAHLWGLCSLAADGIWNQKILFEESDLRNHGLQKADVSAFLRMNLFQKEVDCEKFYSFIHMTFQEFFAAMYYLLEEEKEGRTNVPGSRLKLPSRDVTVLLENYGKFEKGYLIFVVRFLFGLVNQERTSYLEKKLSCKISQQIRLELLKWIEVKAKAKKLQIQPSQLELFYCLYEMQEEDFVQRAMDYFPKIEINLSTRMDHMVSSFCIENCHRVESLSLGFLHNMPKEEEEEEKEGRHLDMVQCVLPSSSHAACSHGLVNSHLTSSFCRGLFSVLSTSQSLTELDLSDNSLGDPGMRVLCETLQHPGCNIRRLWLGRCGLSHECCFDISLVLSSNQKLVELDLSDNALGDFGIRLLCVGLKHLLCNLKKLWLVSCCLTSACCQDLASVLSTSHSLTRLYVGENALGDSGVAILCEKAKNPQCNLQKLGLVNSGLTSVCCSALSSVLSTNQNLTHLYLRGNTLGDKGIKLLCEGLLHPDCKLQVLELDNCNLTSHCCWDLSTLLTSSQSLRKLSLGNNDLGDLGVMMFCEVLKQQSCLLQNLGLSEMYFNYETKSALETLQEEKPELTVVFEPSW

SMILES	IC50 (NLRP3 [2]) [nM]	IC50 (NLRP3 [3]) [nM]	further results
COc1cc(-c2cc(F)cc(C(C)C)c2NC(=O)NS(=O)(=O)c2cc(CN(C)C)n(C(C)C)n2)ccn1 [Example 37, 5-((Dimethylamino)methyl)-N-((4-fluoro-2-iso-propyl-6-(2-methoxypyridin-4-yl)phenyl)carbamoyl)-1-iso-propyl-1H-pyrazole-3-sulfonamide]	≤ 500	≤ 500	AUC ([1]; dose 1 mg/kg): 248 ng·h/mL; clearance ([1]; dose 1 mg/kg): 67.2 mL/min/kg; half-life ([1]; dose 1 mg/kg): 18 min; Vd ([1]; dose 1 mg/kg): 1.32 L/kg
COc1cc(-c2ccc3c(c2NC(=O)NS(=O)(=O)c2cncc(N(C)C)n2)CCC3)ccn1 [Example 104, 6-(Dimethylamino)-N-((5-(2-methoxypyridin-4-yl)-2,3-dihydro-1H-inden-4-yl)carbamoyl)pyrazine-2-sulfonamide]	≤ 500	–	AUC ([1]; dose 1 mg/kg): 841 ng·h/mL; clearance ([1]; dose 1 mg/kg): 19.8 mL/min/kg; half-life ([1]; dose 1 mg/kg): 72 min; Vd ([1]; dose 1 mg/kg): 1.04 L/kg
CC(C)n1ccc(S(=O)(=O)NC(=O)Nc2c(-c3ccncc3)cc(F)c3c2CCC3)n1 [Example 205, N-((7-Fluoro-5-(pyridin-4-yl)-2,3-dihydro-1H-inden-4-yl)carbamoyl)-1-isopropyl-1H-pyrazole-3-sulfonamide]	≤ 500	≤ 500	AUC ([1]; dose 1 mg/kg): 4870 ng·h/mL; clearance ([1]; dose 1 mg/kg): 3.4 mL/min/kg; half-life ([1]; dose 1 mg/kg): 156 min; Vd ([1]; dose 1 mg/kg): 0.57 L/kg
CCn1nc(S(=O)(=O)NC(=O)Nc2c(-c3ccnc(OC)c3)ccc3c2CCC3)cc1CN(C)C [Example 64, 5-((Dimethylamino)methyl)-1-ethyl-N-((5-(2-methoxypyridin-4-yl)-2,3-dihydro-1H-inden-4-yl)carbamoyl)-1H-pyrazole-3-sulfonamide]	≤ 500	≤ 500	AUC ([1]; dose 1.7 mg/kg): 2710 ng·h/mL; clearance ([1]; dose 1.7 mg/kg): 10.5 mL/min/kg; half-life ([1]; dose 1.7 mg/kg): 228 min; Vd ([1]; dose 1.7 mg/kg): 1.23 L/kg
COc1cc(-c2cc(F)cc(C(C)C)c2NC(=O)NS(=O)(=O)c2cncc(N(C)C)n2)ccn1 [Example 103, 6-(Dimethylamino)-N-((4-fluoro-2-isopropyl-6-(2-methoxypyridin-4-yl)phenyl)carbamoyl)pyrazine-2-sulfonamide]	≤ 500	–	AUC ([1]; dose 1 mg/kg): 346 ng·h/mL; clearance ([1]; dose 1 mg/kg): 48.1 mL/min/kg; half-life ([1]; dose 1 mg/kg): 132 min; Vd ([1]; dose 1 mg/kg): 1.77 L/kg
O=C(Nc1c(-c2ccnc(OC3CC3)c2)ccc2c1CCO2)NS(=O)(=O)c1ccn(C2CC2)n1 [Example 276, N-((5-(2-Cyclopropoxypyridin-4-yl)-2,3-dihydrobenzofuran-4-yl)carbamoyl)-1-cyclopropyl-1H-pyrazole-3-sulfonamide, sodium salt]	≤ 500	≤ 1000	–
CCN(CC)CCCS(=O)(=O)NC(=O)Nc1c(-c2ccncc2)cc(F)c2c1CCC2 [Example 149, 3-(Diethylamino)-N-((7-fluoro-5-(pyridin-4-yl)-2,3-dihydro-1H-inden-4-yl)carbamoyl)propane-1-sulfonamide]	≤ 500	≤ 500	–
COc1cc(-c2ccc3c(c2NC(=O)NS(=O)(=O)c2ccn(C(C)(C)CN4CC(F)C4)n2)CCC3)ccn1 [Example 242, 1-(1-(3-Fluoroazetidin-1-yl)-2-methylpropan-2-yl)-N-((5-(2-methoxypyridin-4-yl)-2,3-dihydro-1H-inden-4-yl)carbamoyl)-1H-pyrazole-3-sulfonamide, sodium salt]	≤ 500	≤ 500	–
COc1cc(-c2ccc3c(c2NC(=O)NS(=O)(=O)c2cnc(N(C)C)cn2)CCC3)ccn1 [Example 108, 5-(Dimethylamino)-N-((5-(2-methoxypyridin-4-yl)-2,3-dihydro-1H-inden-4-yl)carbamoyl)pyrazine-2-sulfonamide]	≤ 500	≤ 5000	–
COc1cc(-c2cc(F)c3c(c2NC(=O)NS(=O)(=O)N(C)CC2CCCN2C)CCC3)ccn1 (centres unmarked) [Example 125, 3-(N-Methyl-N-((1-methylpyrrolidin-2-yl)methyl)sulfamoyl)-1-(7-fluoro-5-(2-methoxypyridin-4-yl)-2,3-dihydro-1H-inden-4-yl)urea]	≤ 500	≤ 500	–
CC(C)c1cc(F)cc(-c2ccccc2)c1NC(=O)NS(=O)(=O)c1cc(CN(C)C)n(C(C)C)n1 [Example 46, 5-((Dimethylamino)methyl)-N-((5-fluoro-3-isopropyl-[1,1′-biphenyl]-2-yl)carbamoyl)-1-isopropyl-1H-pyrazole-3-sulfonamide]	≤ 1000	≤ 5000	–
O=C(Nc1c(-c2ccnc(OC(F)F)c2)ccc2c1CCO2)NS(=O)(=O)c1ccn(C2CC2)n1 [Example 277, 1-Cyclopropyl-N-((5-(2-(difluoromethoxy)pyridin-4-yl)-2,3-dihydrobenzofuran-4-yl)carbamoyl)-1H-pyrazole-3-sulfonamide, sodium salt]	≤ 500	≤ 500	–
O=C(Nc1c(-c2ccncc2)cc(F)c2c1CCC2)NS(=O)(=O)C1CN(C2CCC2)C1 [Example 81, 1-Cyclobutyl-N-((7-fluoro-5-(pyridin-4-yl)-2,3-dihydro-1H-inden-4-yl)carbamoyl)azetidine-3-sulfonamide]	≤ 500	≤ 1000	–
CN(C)CC(C)(C)n1ccc(S(=O)(=O)NC(=O)Nc2c(-c3ccnc(OC4CC4)c3)ccc3c2CCC3)n1 [Example 200, N-((5-(2-Cyclopropoxypyridin-4-yl)-2,3-dihydro-1H-inden-4-yl)carbamoyl)-1-(1-(dimethylamino)-2-methylpropan-2-yl)-1H-pyrazole-3-sulfonamide, sodium salt]	≤ 500	≤ 500	–
CC(C)c1cc(F)cc(-c2ccnc(C#N)c2)c1NC(=O)NS(=O)(=O)c1cnc(N(C)C)cn1 [Example 106, N-((2-(2-Cyanopyridin-4-yl)-4-fluoro-6-isopropylphenyl)carbamoyl)-5-(dimethylamino)pyrazine-2-sulfonamide]	≤ 500	≤ 5000	–
CC(C)n1ccc(S(=O)(=O)NC(=O)Nc2c(-c3ccnc(C4CC4)c3)ccc3c2CCC3)n1 [Example 295, N-((5-(2-Cyclopropylpyridin-4-yl)-2,3-dihydro-1H-inden-4-yl)carbamoyl)-1-isopropyl-1H-pyrazole-3-sulfonamide, sodium salt]	≤ 500	≤ 1000	–
CC(C)c1cc(F)cc(-c2cccnc2)c1NC(=O)NS(=O)(=O)c1cc(CN(C)C)n(C(C)C)n1 [Example 41, 5-((Dimethylamino)methyl)-N-((4-fluoro-2-iso-propyl-6-(pyridin-3-yl)phenyl)carbamoyl)-1-iso-propyl-1H-pyrazole-3-sulfonamide]	≤ 500	≤ 1000	–
COc1cc(-c2ccc3c(c2NC(=O)NS(=O)(=O)N(C)CC2CCCN2C)CCC3)ccn1 (centres unmarked) [Example 123, 3-(N-Methyl-N-((1-methylpyrrolidin-2-yl)methyl)sulfamoyl)-1-(5-(2-methoxypyridin-4-yl)-2,3-dihydro-1H-inden-4-yl)urea]	≤ 500	≤ 500	–
COc1cc(-c2ccc3c(c2NC(=O)NS(=O)(=O)c2ccn(C(C)(C)C#N)n2)CCO3)ccn1 [Example 196, 1-(2-Cyanopropan-2-yl)-N-((5-(2-methoxypyridin-4-yl)-2,3-dihydrobenzofuran-4-yl)carbamoyl)-1H-pyrazole-3-sulfonamide]	≤ 500	≤ 500	–
